In ChEMBL document CHEMBL5223181, “Incorporation of an Isohexide Subunit Improves the Drug-like Properties of Bioactive Compounds” (ACS Med Chem Lett, 2023):
Values after ≈ are worked out from the molar mass of the structure shown.

What was measured:
[1] = AUC (0-6 hrs) in C57BL/6 mouse plasma at 50 mg/kg,po and measured upto 24 hrs by LC-MS/MS analysis; type: ADME, organism-based; set-up: dose 50 mg/kg, time < 24 hrs, route po
[2] = Solubility in simulated gastric fluid at pH 1.2 at 30 uM incubated for 90 mins by HPLC-UV analysis; type: ADME
[3] = Oral bioavailability in C57BL/6 mouse plasma at 50 mg/kg and measured upto 24 hrs by LC-MS/MS analysis; type: ADME, organism-based
[4] = Cmax in C57BL/6 mouse plasma at 50 mg/kg,po and measured upto 24 hrs by LC-MS/MS analysis; type: ADME, organism-based; set-up: dose 50 mg/kg, time < 24 hrs, route po
[5] = Tmax in C57BL/6 mouse plasma at 50 mg/kg,po and measured upto 24 hrs by LC-MS/MS analysis; type: ADME, organism-based
[6] = Apparent permeability across apical to basolateral side in dog MDCK-MDR1 cells at 5 uM incubated for 60 mins by LC-MS/MS analysis; type: ADME, cell-based, Canis lupus familiaris
[7] = Solubility of compound in PBS at pH 7.4 at 30 uM incubated for 90 mins by HPLC-UV analysis; type: physicochemical
[8] = Solubility in simulated intestinal fluid at pH 6.8 at 30 uM incubated for 90 mins by HPLC-UV analysis; type: ADME
[9] = Octanol/water partition coefficient, logD of the compound at pH 7.4 at 10 mM incubated for 16 hrs with shaking by HPLC-UV analysis; type: physicochemical
[10] = Half life in C57BL/6 mouse plasma at 50 mg/kg,po and measured upto 24 hrs by LC-MS/MS analysis; type: ADME, organism-based
[11] = Dissociation constant, pKa of the compound at 10 mM incubated for 16 hrs with shaking by HPLC-UV analysis; type: physicochemical
[12] = Solubility in simulated gastric fluid at pH 1.2 at 30 uM incubated for 90 mins in presence of 0.5% SDS by HPLC-UV analysis; type: ADME
[13] = Solubility in simulated intestinal fluid at pH 6.8 at 30 uM incubated for 90 mins in presence of 0.5% SDS by HPLC-UV analysis; type: ADME
[14] = Cmax in C57BL/6 mouse at 61 mg/kg, po and measured upto 24 hrs by LC-MS/MS analysis; type: ADME, organism-based; set-up: dose 61 mg/kg, time < 24 hrs, route po; details: in vivo
[15] = Solubility of compound in PBS at pH 9.0 at 30 uM incubated for 90 mins by HPLC-UV analysis; type: physicochemical
[16] = AUC (0-t) in C57BL/6 mouse at 61 mg/kg, po and measured for 4 to 10 hrs by LC-MS/MS analysis; type: ADME, organism-based; set-up: time lower 4 hrs, dose 61 mg/kg, time upper 10 hrs, route po; details: in vivo
[17] = Terminal half life in C57BL/6 mouse at 61 mg/kg, po and measured upto 24 hrs by LC-MS/MS analysis; type: ADME, organism-based; details: in vivo, read-out: beta t1/2 (converted)
[18] = AUC (0-infinity) in C57BL/6 mouse at 61 mg/kg, po and measured upto 24 hrs by LC-MS/MS analysis; type: ADME, organism-based; set-up: dose 61 mg/kg, time < 24 hrs, route po; details: in vivo
[19] = Cmax in C57BL/6 mouse at 80 mg/kg, po and measured upto 24 hrs by LC-MS/MS analysis; type: ADME, organism-based; set-up: time < 24 hrs, dose 80 mg/kg, route po; details: in vivo
[20] = Apparent permeability of compound at 20 mM and measured after 16 hrs by PAMPA assay; type: ADME
[21] = AUC (0-t) in C57BL/6 mouse at 80 mg/kg, po and measured for 4 to 10 hrs by LC-MS/MS analysis; type: ADME, organism-based; set-up: time upper 10 hrs, dose 80 mg/kg, time lower 4 hrs, route po; details: in vivo
[22] = target: Epidermal growth factor receptor (Homo sapiens, UniProt P00533); experiment: Inhibition of human EGFR
[23] = Terminal half life in C57BL/6 mouse at 80 mg/kg, po and measured upto 24 hrs by LC-MS/MS analysis; type: ADME, organism-based; details: in vivo, read-out: beta t1/2 (converted)
[24] = AUC (0-infinity) in C57BL/6 mouse at 80 mg/kg, po and measured upto 24 hrs by LC-MS/MS analysis; type: ADME, organism-based; set-up: time < 24 hrs, dose 80 mg/kg, route po; details: in vivo
[25] = Prodrug conversion in C57BL/6 mouse plasma assessed as(S)-2-(2-chloro-6-methylbenzamido)-3-(4-(1,3,6-trimethyl-2,4-dioxo-1,2,3,4-tetrahydropyrimidin-5-yl)phenyl)propanoic acid metabolite level at 100 mg/kg, po and measured after 3 hrs LC-MS/MS analysis; type: ADME, organism-based; details: in vivo
[26] = Prodrug conversion in C57BL/6 mouse colon assessed as (S)-2-(2-chloro-6-methylbenzamido)-3-(4-(1,3,6-trimethyl-2,4-dioxo-1,2,3,4-tetrahydropyrimidin-5-yl)phenyl)propanoic acid metabolite level at 100 mg/kg, po and measured after 6 hrs LC-MS/MS analysis; type: ADME, organism-based; details: in vivo
[27] = Prodrug conversion in C57BL/6 mouse plasma assessed as half life of (S)-2-(2-chloro-6-methylbenzamido)-3-(4-(1,3,6-trimethyl-2,4-dioxo-1,2,3,4-tetrahydropyrimidin-5-yl)phenyl)propanoic acid metabolite at 63.5 mg/kg,po and measured upto 24 hrs by LC-MS/MS analysis; type: ADME, organism-based; details: in vivo
[28] = Prodrug conversion in C57BL/6 mouse colon assessed as (S)-2-(2-chloro-6-methylbenzamido)-3-(4-(1,3,6-trimethyl-2,4-dioxo-1,2,3,4-tetrahydropyrimidin-5-yl)phenyl)propanoic acid metabolite level at 100 mg/kg, po and measured after 3 hrs LC-MS/MS analysis; type: ADME, organism-based; details: in vivo
[29] = Oral bioavailability in C57BL/6 mouse plasma at 63.5 mg/kg and measured upto 24 hrs by LC-MS/MS analysis; type: ADME, organism-based
[30] = Prodrug conversion in C57BL/6 mouse plasma assessed as AUC (0 to 6 hrs) of (S)-2-(2-chloro-6-methylbenzamido)-3-(4-(1,3,6-trimethyl-2,4-dioxo-1,2,3,4-tetrahydropyrimidin-5-yl)phenyl)propanoic acid metabolite at 63.5 mg/kg,po and measured upto 24 hrs by LC-MS/MS analysis; type: ADME, organism-based; set-up: time < 24 hrs, dose 63.5 mg/kg, route po; details: in vivo
[31] = Prodrug conversion in C57BL/6 mouse plasma assessed as Tmax of (S)-2-(2-chloro-6-methylbenzamido)-3-(4-(1,3,6-trimethyl-2,4-dioxo-1,2,3,4-tetrahydropyrimidin-5-yl)phenyl)propanoic acid metabolite at 63.5 mg/kg,po and measured upto 24 hrs by LC-MS/MS analysis; type: ADME, organism-based; details: in vivo
[32] = Prodrug conversion in C57BL/6 mouse plasma assessed as (S)-2-(2-chloro-6-methylbenzamido)-3-(4-(1,3,6-trimethyl-2,4-dioxo-1,2,3,4-tetrahydropyrimidin-5-yl)phenyl)propanoic acid metabolite level at 100 mg/kg, po and measured after 6 hrs LC-MS/MS analysis; type: ADME, organism-based; details: in vivo
[33] = Prodrug conversion in C57BL/6 mouse plasma assessed as Cmax of (S)-2-(2-chloro-6-methylbenzamido)-3-(4-(1,3,6-trimethyl-2,4-dioxo-1,2,3,4-tetrahydropyrimidin-5-yl)phenyl)propanoic acid metabolite at 63.5 mg/kg,po and measured upto 24 hrs by LC-MS/MS analysis; type: ADME, organism-based; set-up: dose 63.5 mg/kg, time < 24 hrs, route po; details: in vivo

Epidermal growth factor receptor, sequence (P00533 whole entry): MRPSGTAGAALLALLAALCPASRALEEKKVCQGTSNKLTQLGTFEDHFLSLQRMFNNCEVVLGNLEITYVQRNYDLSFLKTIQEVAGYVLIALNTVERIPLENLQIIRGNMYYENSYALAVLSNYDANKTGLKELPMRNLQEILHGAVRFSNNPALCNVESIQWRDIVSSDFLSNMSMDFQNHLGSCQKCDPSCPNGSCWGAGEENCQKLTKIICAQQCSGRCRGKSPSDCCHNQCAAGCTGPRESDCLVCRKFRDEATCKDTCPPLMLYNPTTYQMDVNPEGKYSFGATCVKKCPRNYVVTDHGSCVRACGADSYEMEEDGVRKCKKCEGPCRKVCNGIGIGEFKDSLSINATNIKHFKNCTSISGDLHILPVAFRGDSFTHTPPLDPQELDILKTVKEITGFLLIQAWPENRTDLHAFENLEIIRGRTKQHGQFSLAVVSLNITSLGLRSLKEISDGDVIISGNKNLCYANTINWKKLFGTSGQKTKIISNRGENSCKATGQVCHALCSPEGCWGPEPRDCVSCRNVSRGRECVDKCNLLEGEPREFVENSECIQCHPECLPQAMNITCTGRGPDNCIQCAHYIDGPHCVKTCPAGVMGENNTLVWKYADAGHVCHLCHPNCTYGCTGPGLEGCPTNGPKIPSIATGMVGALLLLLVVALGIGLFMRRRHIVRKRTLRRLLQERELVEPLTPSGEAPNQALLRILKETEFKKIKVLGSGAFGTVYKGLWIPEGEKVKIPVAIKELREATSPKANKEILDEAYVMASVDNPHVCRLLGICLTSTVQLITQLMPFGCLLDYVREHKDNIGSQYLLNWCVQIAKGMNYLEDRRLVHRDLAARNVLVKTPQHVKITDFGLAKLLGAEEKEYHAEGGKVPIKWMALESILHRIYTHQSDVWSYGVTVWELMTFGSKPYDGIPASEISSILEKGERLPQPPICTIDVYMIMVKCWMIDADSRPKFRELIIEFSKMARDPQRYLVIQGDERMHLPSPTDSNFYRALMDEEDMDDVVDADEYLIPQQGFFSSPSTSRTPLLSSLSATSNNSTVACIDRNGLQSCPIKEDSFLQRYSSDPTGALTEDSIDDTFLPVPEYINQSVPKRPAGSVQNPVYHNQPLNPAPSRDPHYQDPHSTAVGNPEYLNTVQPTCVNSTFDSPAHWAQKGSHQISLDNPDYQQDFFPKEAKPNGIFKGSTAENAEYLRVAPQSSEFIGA

Cc1cccc(Cl)c1C(=O)N[C@@H](Cc1ccc(-c2c(C)n(C)c(=O)n(C)c2=O)cc1)C(=O)O
AUC(0-t) at 24 h [1]: 616 ng·h/mL | solubility at 1.5 h, 30 µM [2]: 94.7 µg/mL (≈ 202 µM) | bioavailability [3]: < 1% | Cmax [4]: 425 ng/mL | Tmax [5]: 1 h | Papp A→B at 1 h, 5 µM [6]: 1.3 ×10⁻⁶ cm/s | solubility at 1.5 h, 30 µM [7]: 95.4 µg/mL (≈ 203 µM) | solubility at 1.5 h, 30 µM [8]: 91.9 µg/mL (≈ 196 µM) | logD at 16 h, 10000 µM [9]: -1.1 | half-life [10]: 0.67 h | pKa at 16 h, 10000 µM [11]: 3.4

COc1cc2ncnc(Nc3ccc(F)c(Cl)c3)c2cc1OC
solubility at 1.5 h, 30 µM [2]: 49.4 µg/mL (≈ 148 µM) | solubility at 1.5 h, 30 µM [12]: 23.6 µg/mL | solubility at 1.5 h, 30 µM [13]: 63.9 µg/mL | Cmax [14]: 7440 ng/mL | solubility at 1.5 h, 30 µM [15]: 1.53 µg/mL (≈ 4.58 µM) | AUC(0-t) [16]: 25500 ng·h/mL | half-life [17]: 1.9 h | solubility at 1.5 h, 30 µM [7]: 1.3 µg/mL (≈ 3.9 µM) | solubility at 1.5 h, 30 µM [8]: 51.7 µg/mL (≈ 155 µM) | AUC(0-inf) [18]: 26300 ng·h/mL | pKa at 16 h, 10000 µM [11]: 4.51

COc1cc2ncnc(Nc3ccc(O[C@H]4CO[C@H]5[C@@H]4OC[C@@H]5O)c(Cl)c3)c2cc1OC
solubility at 1.5 h, 30 µM [2]: 87.9 µg/mL (≈ 191 µM) | solubility at 1.5 h, 30 µM [12]: 56 µg/mL | solubility at 1.5 h, 30 µM [13]: 80.8 µg/mL | solubility at 1.5 h, 30 µM [15]: 45.4 µg/mL (≈ 98.7 µM) | Cmax [19]: 30100 ng/mL | Papp at 16 h, 20000 µM [20]: 7.45 ×10⁻⁶ cm/s | AUC(0-t) [21]: 44500 ng·h/mL | half-life [17]: 1.19 h | solubility at 1.5 h, 30 µM [7]: 19.8 µg/mL (≈ 43.1 µM) | solubility at 1.5 h, 30 µM [8]: 65.4 µg/mL (≈ 142 µM) | IC50 [22]: 5.3 nM | half-life [23]: 1.19 h | AUC(0-inf) [24]: 44500 ng·h/mL | pKa at 16 h, 10000 µM [11]: 5

Cc1cccc(Cl)c1C(=O)N[C@@H](Cc1ccc(-c2c(C)n(C)c(=O)n(C)c2=O)cc1)C(=O)O[C@H]1CO[C@H]2[C@@H]1OC[C@@H]2O
Drug metabolism [25]: 500 ng/mL | Drug metabolism [26]: 100000 ng/g | t1/2 [27]: 1.63 h | solubility at 1.5 h, 30 µM [2]: 126 µg/mL (≈ 210 µM) | Drug metabolism [28]: 200000 ng/g | bioavailability [29]: 12% | AUC [30]: 2100 ng·h/mL | Tmax [31]: 0.25 h | Papp at 16 h, 20000 µM [20]: 1.68 ×10⁻⁶ cm/s | Drug metabolism [32]: 200 ng/mL | Papp A→B at 1 h, 5 µM [6]: 2.5 ×10⁻⁶ cm/s | solubility at 1.5 h, 30 µM [7]: 107 µg/mL (≈ 179 µM) | solubility at 1.5 h, 30 µM [8]: 99.6 µg/mL (≈ 167 µM) | logD at 16 h, 10000 µM [9]: 1.2 | Cmax [33]: 3193 ng/mL | pKa at 16 h, 10000 µM [11]: 7.9
